Several values for one entry are separate records, joined by “and”; a condition that tells them apart may be missing. Equal values may be shown once.
Experiment: solvent given as SMILES

O=P(c1ccccc1)(c1ccccc1)c1cccc(-n2c(-c3ccccc3P(=O)(c3ccccc3)c3ccccc3)nc3ccccc32)c1
emission maximum (in ClCCl): 384 nm

Fc1ccc(C2=[N+]3C(=Nc4c5ccccc5c(-c5ccc(F)cc5)n4[B-]3(F)F)c3ccccc32)cc1
emission maximum (in ClCCl): 724 nm

Nc1ccccc1C(=O)O
emission maximum (in C1CCCCC1): 387 nm | emission maximum (in C1COCCO1): 395 nm | emission maximum (in CC#N): 397 nm | emission maximum (in CC(C)=O): 394 nm | emission maximum (in CCO): 407 nm | emission maximum (in CO): 406 nm | emission maximum (in CS(C)=O): 400 nm | emission maximum (in O): 400 nm and 397 nm | emission maximum (in OCC(F)(F)F): 423 nm | emission maximum (in c1ccccc1): 394 nm

CCN(CC)c1ccc2cc(-c3cn4cc5ccccc5cc4n3)c(=O)oc2c1
emission maximum (in ClC(Cl)Cl): 460 nm

O=S1(=O)c2ccccc2-c2cc(-c3c4ccccc4cc4ccccc34)ccc21
emission maximum (in C1CCCCC1): 403.35 nm | emission maximum (in CC#N): 514.77 nm | emission maximum (in ClCCl): 472.82 nm

CCOc1cc(C=C2c3ccccc3-c3ccccc32)c(OCC)cc1C=C1c2ccccc2C=Cc2ccccc21
emission maximum (in C1CCOC1): 474 nm

Cc1ccc2c(c1)c1cc(Br)ccc1n2-c1c(C#N)c(-n2c3ccc(Br)cc3c3cc(Br)ccc32)c(-n2c3ccc(Br)cc3c3cc(Br)ccc32)c(C#N)c1-n1c2ccc(Br)cc2c2cc(Br)ccc21
emission maximum (in Cc1ccccc1): 546 nm

CCn1c2ccccc2c2cc(-c3cc(-c4ccc5c(c4)c4ccccc4n5CC)nc(SC)n3)ccc21
emission maximum (in C1CCOC1): 394 nm | emission maximum (in CCOC(C)=O): 392 nm | emission maximum (in CN(C)C=O): 421 nm | emission maximum (in Cc1ccccc1): 387 nm | emission maximum (in ClCCl): 411 nm

CCCCCCCCCc1csc2cc(-c3cc(-c4cc5scc(CCCCCCCCC)c5s4)c4ccc5c(-c6cc7scc(CCCCCCCCC)c7s6)cc(-c6cc7scc(CCCCCCCCC)c7s6)c6ccc3c4c65)sc12
emission maximum (in ClC(Cl)Cl): 490 nm

C=C[Si](c1c2ccccc2cc2ccccc12)(c1c2ccccc2cc2ccccc12)c1c2ccccc2cc2ccccc12
emission maximum (in ClC(Cl)Cl): 437 nm

c1ccc(C2=C(c3ccccc3)c3cccc4c3c(cc3nc5c(-c6ccccc6)ccc(-c6ccccc6)c5nc34)O2)cc1
emission maximum (in ClCCl): 551 nm

C[C@H](Nc1c2ccc(=[N+]3CCCCC3)cc-2oc2cc(N3CCCCC3)ccc12)C(=O)OC(C)(C)C
emission maximum (in ClCCl): 544 nm

COc1ccc(-c2c3nc(cc4ccc([nH]4)c(-c4ccc(OC)c(OCCCC(=O)O)c4)c4nc(cc5ccc2[nH]5)C=C4)C=C3)cc1OCCCC(=O)O
emission maximum (in CS(C)=O): 639 nm

F[B-]1(F)n2c(Cl)c(Cl)c(Br)c2C(Oc2ccccc2)=C2C(Br)=C(Cl)C(Cl)=[N+]21
emission maximum (in ClCCl): 541 nm

COc1ccc(/C=C/C2=CC(/C=C/c3ccc(OC)cc3)=[O+][B-](F)(F)O2)cc1
emission maximum (in CC#N): 549 nm | emission maximum (in CC(C)=O): 534 nm | emission maximum (in CCOC(C)=O): 515 nm | emission maximum (in CCOCC): 497 nm | emission maximum (in ClC(Cl)(Cl)Cl): 492 nm | emission maximum (in ClCCl): 538 nm

c1ccc(-c2nc(-c3ccccc3)nc(-n3c4ccccc4c4cc(-n5c6ccccc6c6ccccc65)cc(-n5c6ccccc6c6ccccc65)c43)n2)cc1
emission maximum (in C1CCOC1): 482.53 nm | emission maximum (in Cc1ccccc1): 465.06 nm

O=S(=O)(c1ccc(-c2ccc(-c3nc4c5ccccc5c5ccccc5c4n3-c3ccccc3)cc2)cc1)c1ccc(-c2ccc(-c3nc4c5ccccc5c5ccccc5c4n3-c3ccccc3)cc2)cc1
emission maximum (in C1CCOC1): 451 nm | emission maximum (in CC#N): 479 nm | emission maximum (in CC(C)=O): 468 nm | emission maximum (in CC(C)OC(C)C): 437 nm | emission maximum (in CCCCCC): 404 nm | emission maximum (in CCCCOCCCC): 420 nm | emission maximum (in CCN(CC)CC): 413 nm | emission maximum (in CCOC(C)=O): 448 nm | emission maximum (in CCOCC): 438 nm | emission maximum (in CN(C)C=O): 478 nm | emission maximum (in ClC(Cl)Cl): 450 nm | emission maximum (in ClCCl): 461 nm | emission maximum (in c1ccc2c(c1)c1ccccc1n2-c1ccc(-c2ccc(-n3c4ccccc4c4ccccc43)cc2)cc1): 443 nm

CCCCCCCCCCCCCCCCOC(=O)c1ccc(N(c2ccccc2)c2ccccc2)cc1
emission maximum (in C1CCCCC1): 380 nm | emission maximum (in C1CCOC1): 428 nm | emission maximum (in CC#N): 480 nm | emission maximum (in CCOC(C)=O): 428 nm | emission maximum (in ClCCCl): 450 nm | emission maximum (in c1ccccc1): 412 nm

COc1ccc(C2=[N+]3C(=Nc4c(-c5ccccc5-c5ccc(C(C)(C)C)cc5)cc(-c5ccc(OC)cc5)n4[B-]3(F)F)c3c2c2cc(C(C)(C)C)ccc2c2ccccc32)cc1
emission maximum (in Cc1ccccc1): 723 nm

C(#Cc1ncnc2ccccc12)c1ccc(N(c2ccccc2)c2ccccc2)cc1
emission maximum (in C1CCCCC1): 433 nm | emission maximum (in C1CCOC1): 535 nm | emission maximum (in CC#N): 610 nm | emission maximum (in CS(C)=O): 616 nm | emission maximum (in ClCCl): 565 nm

O=C(c1ccccc1)c1ccc(-n2c3ccccc3c3c2c2ccccc2n3-c2ccccc2)cc1
emission maximum (in Cc1ccccc1): 520 nm

N#Cc1c(N2CCCCC2)cc(-c2ccc(Br)cc2)c2c1CCc1ccccc1-2
emission maximum (in C1CCOC1): 468 nm

C=C(C)C(CN1C(=O)c2cccc3c2c(cc2oc(C)nc23)C1=O)OO (stereo not given)
emission maximum (in CCO): 416 nm

CC(C)(C)c1ccc2c(c1)c1cc3c4cc(C(C)(C)C)ccc4c4c5c6ccc(C(C)(C)C)cc6c6cc7c8cc(C(C)(C)C)ccc8c8c2c1c(c34)c(c78)c65
emission maximum (in CCCCCC): 679.35 nm | emission maximum (in CCOCC): 679.9 nm | emission maximum (in Cc1ccccc1): 685.4 nm

COC(=O)/C(C#N)=c1/cc/c(=c2/cc/c(=C(\C#N)C(=O)OC)s2)s1
emission maximum (in Cc1ccccc1): 601 nm

CC1(C)CC(=O)c2cc(F)cc(F)c2N1
emission maximum (in CC#N): 455 nm | emission maximum (in CCO): 492 nm

CCCCn1c2c(-c3ccc(N(c4ccccc4)c4ccccc4)cc3)cc(C#N)cc2c2cc(C#N)cc(-c3ccc(N(c4ccccc4)c4ccccc4)cc3)c21
emission maximum (in C1CCCCC1): 404 nm | emission maximum (in C1CCOC1): 449 nm | emission maximum (in CC#N): 476 nm | emission maximum (in CCCCOCCCC): 419 nm | emission maximum (in CCN(CC)CC): 415 nm | emission maximum (in CCOC(C)=O): 443 nm | emission maximum (in CCOCC): 430 nm | emission maximum (in CN(C)C=O): 476 nm | emission maximum (in Cc1ccccc1): 415 nm | emission maximum (in ClC=C(Cl)Cl): 424 nm | emission maximum (in ClCCl): 452 nm

O=Cc1cc(O)c(C=O)cc1O
emission maximum (in C1CCOC1): 468 nm | emission maximum (in C1COCCO1): 468 nm | emission maximum (in CC#N): 474 nm | emission maximum (in CC(C)=O): 470 nm | emission maximum (in CCCO): 491 nm | emission maximum (in CCO): 491 nm | emission maximum (in CN(C)C=O): 492 nm | emission maximum (in CN(C)P(=O)(N(C)C)N(C)C): 493 nm | emission maximum (in CNC=O): 479 nm | emission maximum (in CO): 492 nm | emission maximum (in CS(C)=O): 495 nm | emission maximum (in NC=O): 490 nm

c1ccc(-c2ccc(-c3cn4ccc[n+]4[n-]3)cc2)cc1
emission maximum (in ClCCl): 456 nm

Cc1ccc2c(c1)C(c1ccccc1)(c1ccccc1)c1cc(C)ccc1N2c1ccc2c(c1)N(c1ccccc1)c1ccccc1B2c1c(C(C)C)cc(C(C)C)cc1C(C)C
emission maximum (in Cc1ccccc1): 449 nm | emission maximum (in O=P(c1ccccc1)(c1ccccc1)c1ccc2oc3ccc(P(=O)(c4ccccc4)c4ccccc4)cc3c2c1): 465 nm

CN(C)c1ccc(N2c3sc4ccccc4c3Sc3c2sc2ccccc32)cc1
emission maximum (in ClCCl): 556 nm

N#Cc1c(/C=C/c2ccc(N(c3ccccc3)c3ccccc3)cc2)cc(-c2ccccc2)cc1N1CCCCC1
emission maximum (in CS(C)=O): 520 nm

F[B-]1(F)Oc2ccccc2-c2cc(-n3c4ccc(-c5ccccc5)cc4c4cc(-c5ccccc5)ccc43)cc[n+]21
emission maximum (in Cc1ccccc1): 471 nm | emission maximum (in O=P(c1ccccc1)(c1ccccc1)c1ccccc1Oc1ccccc1P(=O)(c1ccccc1)c1ccccc1): 496 nm

CC(C)[Si](C#Cc1c2ccccc2c(C#Cc2c3ccccc3c(C#Cc3c4ccccc4c(C#Cc4c5ccccc5c(C#C[Si](C(C)C)(C(C)C)C(C)C)c5ccccc45)c4ccccc34)c3ccccc23)c2ccccc12)(C(C)C)C(C)C
emission maximum (in Cc1ccccc1): 609 nm

Brc1ccc(N/C=C/C=[NH+]c2ccc(Br)cc2)cc1
emission maximum (in CS(C)=O): 497 nm

CC1=C(C2=C(C)C(C)=[N+]3C2=Cc2cc(C)c(C)n2[B-]3(F)F)C2=Cc3cc(C)c(C)n3[B-](F)(F)[N+]2=C1C
emission maximum (in ClCCl): 598 nm

CCN(CC)c1ccc2c(c1)oc(=O)c1c(=O)oc3c(OC)cccc3c12
emission maximum (in CS(C)=O): 572 nm | emission maximum (in ClCCl): 530 nm

CCCN1c2ccccc2Sc2cc(/C=C\c3cc(=O)oc4ccccc34)ccc21
emission maximum (in ClC(Cl)Cl): 618 nm

Cc1ccc2nc(-c3cccc4nc(C)[nH]c(=O)c34)oc2c1
emission maximum (in CN(C)C=O): 410 nm

N#C/C(=C/Nc1ccc(C#N)cc1)c1nc(-c2ccccc2)cs1
emission maximum (in CCO): 434 nm | emission maximum (in CN(C)C=O): 436 nm | emission maximum (in Cc1ccccc1): 438 nm | emission maximum (in ClCCl): 437 nm

Cc1cccc(C)c1-c1cc2c(C)c3c4cc5nc6ccc7c8c(C)c9cc(-c%10c(C)cccc%10C)c(-c%10c(C)cccc%10C)cc9c(C)c8c7c6nc5cc4c3c(C)c2cc1-c1c(C)cccc1C
emission maximum (in ClC(Cl)Cl): 576 nm

c1ccc(-c2nc(-c3ccccc3)n3ccccc23)cc1
emission maximum (in C1CCCCC1): 445 nm | emission maximum (in CC#N): 478 nm | emission maximum (in CO): 477 nm | emission maximum (in ClC(Cl)Cl): 454 nm | emission maximum (in ClCCl): 484 nm | emission maximum (in O): 479 nm

FC(F)(F)c1ccc2oc3nc4oc5ccc(N(c6ccccc6)c6ccccc6)cc5c4cc3c2c1
emission maximum (in ClC(Cl)Cl): 487 nm

Cc1ccc2nc3c4c(c5ccccc5c3nc2c1)OC(=O)CC4c1ccc(C(F)(F)F)cc1 (stereo not given)
emission maximum (in ClC(Cl)Cl): 430 nm

COc1ccc(-c2c3cc4ccccc4cc3c(C#Cc3ccccc3)c3cc4cc(C)sc4cc23)cc1
emission maximum (in ClCCl): 620 nm

CC(C)(C)c1ccc(C2=C(c3ccc(N4c5ccccc5C(C)(C)c5ccccc54)cc3)S(=O)(=O)c3c2sc(-c2ccc(N4c5ccccc5C(C)(C)c5ccccc54)cc2)c3-c2ccc(C(C)(C)C)cc2)cc1
emission maximum (in C1CCOC1): 581 nm

CCCCNc1ccc2n1[B-](F)(F)[N+]1=CC(/C=C/C(=O)OC(C)(C)C)=CC1=C2c1c(C)cc(C)cc1C
emission maximum (in ClCCl): 546 nm

CCCCn1c2ccccc2c2ccc3c4cc(-c5ccc(C(F)(F)F)cc5)ccc4n(CCCC)c3c21
emission maximum (in ClC(Cl)Cl): 402 nm
